In brackets after ≈: the same amount, converted by molar mass. Like-named read-outs stand apart in the source and are kept apart here.
Legend:
Assay in all cases: Serum MIC, broth micro-dilution
Assay type in all cases: cell-based
[1] = system: Klebsiella pneumoniae ATCC 700603; conditions: Klebsiella pneumoniae, read-out: K pneumoniae 700603 Serum MIC
Description: (§1) In vitro antimicrobial activity of each compound was determined by measuring minimal inhibitor concentrations (MICs) using the broth micro-dilution technique as approved by the Clinical and Laboratory Standards Institute (CLSI) (Methods for Dilution Antimicrobial Susceptibility Tests for Bacteria that Grow Aerobically; Approved Standard—Eighth Edition. CLSI document M07-A8. Wayne, Pa.: Clinical and Laboratory Standards; 2009). Antibacterial activity was measure against Escherichia coli strain ATCC 25922 (E. coli), Klebsiella pneumoniae ATCC 700603 (K. pneumoniae), Acinetobacter baumannii ATCC 17978 (A. baumannii), and Pseudomonas aeruginosa PA01 (P. aeruginosa), each of which is representative of a clinically relevant Gram-negative species. Cells were inoculated onto plates of Mueller Hinton Agar and grown at 37° C. for 16-18 hours. Inocula suspensions were prepared by scraping cells into 1 mL of testing media (Mueller Hinton II cation adjusted Broth) and diluting to a final OD 600 nm of 0.01.
(§2) Test compounds were prepared in DMSO at a concentration of […]. The compounds were tested under several different dilution formats. In protocol 1, the compound stocks were diluted into testing media at a concentration of 64 μg/ml and serial 2-fold dilutions were made in the same media, in 96-well U bottom microtiter dishes, for a total of 10 compound concentrations. In protocol 2, the compound stocks were diluted into testing media at a concentration of 4 μg/mL and serial 2-fold dilutions were made in the same media, in 96-well U bottom microtiter dishes, for a total of 10 compound concentrations. In protocol 3, compound stocks were diluted into testing media at a concentration of 0.5 μg/mL, with serial 2-fold dilutions conducted as described above. In protocol 4, compound stocks were diluted into testing media at a concentration of 0.13 μg/mL, with serial 2-fold dilutions conducted as described above. Inocula suspensions were added to the 2-fold serial dilutions of test compounds to a final density of OD 600 nm of 0.0005 and incubated at 35° C. for 22 hours. […] To assess antimicrobial activity in the presence of plasma proteins, MICs were also determined in growth media supplemented with 50% serum. Bacterial inocula and test compound dilution plates were prepared using the same protocol as described above for the standard MICs assay, with the exception that a mixture of 50% v/v Mueller Hinton II cation adjusted Broth and 50% v/v mouse sterile filtered serum (Equitech-Bio) was used in place of 100% Mueller Hinton II cation adjusted Broth. The results are listed in Table 3 (MIC, IC50 values micromolar).

[2] = system: Escherichia coli strain ATCC 25922; conditions: Escherichia coli, read-out: E. coli 25922 Serum MIC
Description: as §1, §2

[3] = system: Acinetobacter baumannii ATCC 17978; conditions: Acinetobacter baumannii
Description: as §1, §2

[4] = system: Pseudomonas aeruginosa PA01; conditions: Pseudomonas aeruginosa, read-out: P. aeruginosa 01 Serum MIC
Description: as §1, §2

[5] = ATCC17978, 22 h, read-out: A. baumanii 17978 Serum MIC
[6] = ATCC17978, 22 h, read-out: Acinetobacter baumanii 17978 Serum MIC
[7] = ATCC700603, 50% v/v mouse serum in Mueller Hinton II cation adjusted Broth, 35° C., 22 hours, Table 4
[8] = ATCC25922, 50% v/v mouse serum in Mueller Hinton II cation adjusted Broth, 35° C., 22 hours, Table 4
[9] = ATCC17978, 50% v/v mouse serum in Mueller Hinton II cation adjusted Broth, 35° C., 22 hours, Table 4, read-out: A. baumanii 17978 Serum MIC
[10] = ATCC17978, 50% v/v mouse serum in Mueller Hinton II cation adjusted Broth, 35° C., 22 hours, Table 5, read-out: Acinetobacter baumanii 17978 Serum MIC
[11] = PA01, 50% v/v mouse serum in Mueller Hinton II cation adjusted Broth, 35° C., 22 hours, Table 4

Row | SMILES | MIC [1, 7] | MIC [2, 8] | MIC [3, 9] | MIC [3, 10] | MIC [4, 11] | MIC ([1]; ATCC700603, 22 h) | MIC ([2]; ATCC25922, 22 h) | MIC [3, 5] | MIC [3, 6] | MIC ([4]; PA01, 22 h)
1 | Cc1nc(-c2ccc(OC(C)C)cc2)ncc1C(=O)N[C@@H](CNS(N)(=O)=O)C(=O)N(C)[C@@H]1C(=O)N[C@@H](C)C(=O)N[C@H](C(=O)O)Cc2ccc(OC[C@H](O)CN)c(c2)-c2cc1cc(OC[C@H](O)CN)c2O [Example 14, (8S,11S,14S)-18-hydroxy-11-methyl-14-[methyl-[(2S)-2-[[2-(4-isopropoxy-phenyl)-4-methyl-pyrimidine-5-carbonyl]amino]-3-(sulfamoylamino)-propanoyl]amino]-10,13-dioxo-3,17-bis[(2R)-3-amino-2-hydroxy-propoxy]-9,12-diazatricyclo-[13.3.1.12,6]icosa-1(18),2(20),3,5,15(19), 16-hexaene-8-carboxylic acid] |  |  |  |  |  | 2 µM (≈ 1.99 µg/mL) | 1.5 µM (≈ 1.49 µg/mL) | 32 µM (≈ 31.8 µg/mL) | 32 µM (≈ 31.8 µg/mL) | 48 µM (≈ 47.8 µg/mL)
2 | C[C@@H]1NC(=O)[C@@H](N(C)C(=O)[C@H](CCN)NC(=O)c2cnn(-c3ccc(C(C)(C)C)cc3)c(=O)c2)c2cc(OC[C@H](O)CN)c(O)c(c2)-c2cc(ccc2OC[C@H](O)CN)C[C@@H](C(=O)O)NC1=O [Example 17, (8S,11S,14S)-18-hydroxy-11-methyl-14-[methyl-[(2S)-4-amino-2-[[1-(4-tert-butylphenyl)-6-oxo-pyridazine-4-carbonyl]amino]-butanoyl]amino]-10,13-dioxo-3,17-bis[(2R)-3-amino-2-hydroxy-propoxy]-9,12-diazatricyclo-[13.3.1.12,6]icosa-1(18),2(20),3,5,15(19), 16-hexaene-8-carboxylic acid] |  |  |  |  |  | 1 µM (≈ 0.93 µg/mL) | 1 µM (≈ 0.93 µg/mL) | 16 µM (≈ 14.9 µg/mL) | 16 µM (≈ 14.9 µg/mL) | 64 µM (≈ 59.5 µg/mL)
3 | C[C@@H]1NC(=O)[C@@H](N(C)C(=O)[C@H](CCN)NC(=O)c2cnn(-c3ccc(OCCC(C)(C)C)cc3)c(=O)c2)c2cc(OC[C@H](O)CN)c(O)c(c2)-c2cc(ccc2OC[C@H](O)CN)C[C@@H](C(=O)O)NC1=O [Example 22, (8S,11S,14S)-18-hydroxy-11-methyl-14-[methyl-[(2S)-4-amino-2-[[1-[4-(3,3-dimethylbutoxy)-phenyl]-6-oxo-pyridazine-4-carbonyl]amino]-butanoyl]amino]-10,13-dioxo-3,17-bis[(2R)-3-amino-2-hydroxy-propoxy]-9,12-diazatricyclo-[13.3.1.12,6]icosa-1(18),2(20),3,5,15(19), 16-hexaene-8-carboxylic acid] | 0.5 µM (≈ 0.487 µg/mL) | 1 µM (≈ 0.974 µg/mL) | 32 µM (≈ 31.2 µg/mL) | 32 µM (≈ 31.2 µg/mL) | 32 µM (≈ 31.2 µg/mL) |  |  |  |  | 
4 | Cc1nc(N2CCC(C(C)(C)C)CC2)nc(N)c1C(=O)N[C@@H](CCN)C(=O)N(C)[C@@H]1C(=O)N[C@@H](C)C(=O)N[C@H](C(=O)O)Cc2ccc(OC[C@H](O)CN)c(c2)-c2cc1cc(OC[C@H](O)CN)c2O [Example 25, (8S,11S,14S)-18-hydroxy-11-methyl-14-[methyl-[(2S)-4-amino-2-[[4-amino-2-(4-tert-butyl-1-piperidyl)-6-methyl-pyrimidine-5-carbonyl]amino]-butanoyl]amino]-10,13-dioxo-3,17-bis[(2R)-3-amino-2-hydroxy-propoxy]-9,12-diazatricyclo-[13.3.1.12,6]icosa-1(18),2(20),3,5,15(19), 16-hexaene-8-carboxylic acid] | 0.5 µM (≈ 0.475 µg/mL) | 1 µM (≈ 0.95 µg/mL) | 16 µM (≈ 15.2 µg/mL) | 16 µM (≈ 15.2 µg/mL) | 64 µM (≈ 60.8 µg/mL) |  |  |  |  | 
5 | C[C@@H]1NC(=O)[C@@H](N(C)C(=O)[C@H](CCN)NC(=O)c2cnn(-c3ccc(OC4CCCCC4)cc3)c(=O)c2)c2cc(OC[C@H](O)CN)c(O)c(c2)-c2cc(ccc2OC[C@H](O)CN)C[C@@H](C(=O)O)NC1=O [Example 26, (8S,11S,14S)-18-hydroxy-11-methyl-14-[methyl-[(2S)-4-amino-2-[[1-[4-(cyclohexoxy)phenyl]-6-oxo-pyridazine-4-carbonyl]amino]-butanoyl]amino]-10,13-dioxo-3,17-bis[(2R)-3-amino-2-hydroxy-propoxy]-9,12-diazatricyclo-[13.3.1.12,6]icosa-1(18),2(20),3,5,15(19), 16-hexaene-8-carboxylic acid] | 0.75 µM (≈ 0.729 µg/mL) | 1 µM (≈ 0.972 µg/mL) | 24 µM (≈ 23.3 µg/mL) | 24 µM (≈ 23.3 µg/mL) | 64 µM (≈ 62.2 µg/mL) |  |  |  |  | 

Second part, led by results:

Row | MIC [1, 7] | MIC [2, 8] | MIC [3, 9] | MIC [3, 10] | MIC [4, 11] | SMILES | MIC ([1]; ATCC700603, 22 h) | MIC ([2]; ATCC25922, 22 h) | MIC [3, 5] | MIC [3, 6] | MIC ([4]; PA01, 22 h)
6 | 0.5 µM (≈ 0.503 µg/mL) | 0.5 µM (≈ 0.503 µg/mL) | 8 µM (≈ 8.04 µg/mL) | 8 µM (≈ 8.04 µg/mL) | 8 µM (≈ 8.04 µg/mL) | Cc1nc(-c2ccc(C3(C)CC3)cc2)nc(C)c1C(=O)N[C@@H](CNS(N)(=O)=O)C(=O)N(C)[C@@H]1C(=O)N[C@@H](C)C(=O)N[C@H](C(=O)O)Cc2ccc(OC[C@H](O)CN)c(c2)-c2cc1cc(OC[C@H](O)CN)c2O [Example 15, (8S,11S,14S)-18-hydroxy-11-methyl-14-[methyl-[(2S)-2-[[4,6-dimethyl-2-[4-(1-methylcyclo-propyl)phenyl]-pyrimidine-5-carbonyl]amino]-3-(sulfamoylamino)-propanoyl]amino]-10,13-dioxo-3,17-bis[(2R)-3-amino-2-hydroxy-propoxy]-9,12-diazatricyclo-[13.3.1.12,6]icosa-1(18),2(20),3,5,15(19), 16-hexaene-8-carboxylic acid] |  |  |  |  | 
7 | 0.25 µM (≈ 0.235 µg/mL) | 0.38 µM (≈ 0.358 µg/mL) | 16 µM (≈ 15.1 µg/mL) | 16 µM (≈ 15.1 µg/mL) | 48 µM (≈ 45.2 µg/mL) | Cc1nc(-c2ccc(C3(C)CC3)cc2)nc(N)c1C(=O)N[C@@H](CCN)C(=O)N(C)[C@@H]1C(=O)N[C@@H](C)C(=O)N[C@H](C(=O)O)Cc2ccc(OC[C@H](O)CN)c(c2)-c2cc1cc(OC[C@H](O)CN)c2O [Example 21] |  |  |  |  | 
8 | 1.8 µM (≈ 1.67 µg/mL) | 2.7 µM (≈ 2.51 µg/mL) | 32 µM (≈ 29.7 µg/mL) | 32 µM (≈ 29.7 µg/mL) | 64 µM (≈ 59.4 µg/mL) | C[C@@H]1NC(=O)[C@@H](N(C)C(=O)[C@H](CCN)NC(=O)c2cnn(-c3ccc(C4(C)CC4)cc3)c(=O)c2)c2cc(OC[C@H](O)CN)c(O)c(c2)-c2cc(ccc2OC[C@H](O)CN)C[C@@H](C(=O)O)NC1=O [Example 29, (8S,11S,14S)-18-hydroxy-11-methyl-14-[methyl-[(2S)-4-amino-2-[[1-[4-(1-methylcyclopropyl)-phenyl]-6-oxo-pyridazine-4-carbonyl]amino]-butanoyl]amino]-10,13-dioxo-3,17-bis[(2R)-3-amino-2-hydroxy-propoxy]-9,12-diazatricyclo-[13.3.1.12,6]icosa-1(18),2(20),3,5,15(19), 16-hexaene-8-carboxylic acid] |  |  |  |  | 
9 | 0.75 µM (≈ 0.686 µg/mL) | 1 µM (≈ 0.914 µg/mL) | 32 µM (≈ 29.2 µg/mL) | 32 µM (≈ 29.2 µg/mL) | 48 µM (≈ 43.9 µg/mL) | Cc1nc(-c2ccc(C(C)(C)C)cc2)ncc1C(=O)N[C@@H](CN)C(=O)N(C)[C@@H]1C(=O)N[C@@H](C)C(=O)N[C@H](C(=O)O)Cc2ccc(OC[C@H](O)CN)c(c2)-c2cc1cc(OC[C@H](O)CN)c2O [Example 31, (8S,11S,14S)-18-hydroxy-11-methyl-14-[methyl-[(2S)-3-amino-2-[[2-(4-tert-butylphenyl)-4-methyl-pyrimidine-5-carbonyl]amino]-propanoyl]amino]-10,13-dioxo-3,17-bis[(2R)-3-amino-2-hydroxy-propoxy]-9,12-diazatricyclo-[13.3.1.12,6]icosa-1(18),2(20),3,5,15(19), 16-hexaene-8-carboxylic acid] |  |  |  |  | 

From US11208387B2, “Macrocyclic broad spectrum antibiotics” (Genentech, Inc., priority 2019, dated 2021)
